Among the data in US9422263B2, “Fluoro-substituted 3,5-dicyano-4-(1H-indazol-5-yl)-2,6-dimethyl-1,4-dihydropyridine derivatives and methods of use thereof” (BAYER PHARMA AKTIENGESELLSCHAFT, priority 2009, dated 2016) are IC50 and Papp values, retold here.

For data set [1], the target named is recombinant kinase domain of the human c-Met (amino acids 960-1390) (Homo sapiens (Human), UniProt P08581). In words: c-Met receptor tyrosine kinase homogeneous time-resolved fluorescence assay (alternative format). The data set is classed as biochemical. To be noted: HTRF format; ATP 10 μM. The source says:
c-Met Receptor Tyrosine Kinase Homogeneous Time-Resolved Fluorescence Assay (Alternative Format):
The N-terminally His6-tagged recombinant kinase domain of the human c-Met (amino acids 960-1390), expressed in insect cells (SF21) and purified by Ni-NTA affinity chromatography and consecutive size exclusion chromatography (Superdex 200), is used. Alternatively, commercially available c-Met (Millipore) can be used. As substrate for the kinase reaction, the biotinylated poly-Glu, Tyr (4:1) copolymer (#61GTOBLC, Cis Biointernational, Marcoule, France) is used.
For the assay, […] of a 100-fold concentrated solution of the test compound in DMSO is pipetted into a black low-volume 384-well microtiter plate (Greiner Bio-One, Frickenhausen, Germany). 2 μL of a solution of c-Met in assay buffer [25 mM Hepes/NaOH, pH 7.5; 5 mM MgCl2; 5 mM MnCl2; 2 mM dithiothreitol; 0.1% (v/v) Tween 20 (Sigma); 0.1% (w/v) bovine serum albumin] are added, and the mixture is incubated for 15 min at 22° C. to allow pre-binding of the test compound to the enzyme before the start of the kinase reaction. Then, the kinase reaction is started by the addition of 3 μL of a solution of adenosine triphosphate (ATP, 16.7 μM; final concentration in the 5 μL assay volume is 10 μM) and substrate (2.27 μg/mL, final concentration in the 5 μL assay volume is 1.36 μg/mL ˜30 nM) in assay buffer, and the resulting mixture is incubated for a reaction time of 30 min at 22° C. The concentration of c-Met in the assay is adjusted depending on the activity of the enzyme lot and is appropriately chosen to have the assay in the linear range; typical enzyme concentrations are in the range of about 0.03 nM (final concentration in the 5 μL assay volume). The reaction is stopped by the addition of 5 μL of a solution of HTRF detection reagents [40 nM streptavidine-X Lent and 2.4 nM PT66-Eu-chelate, an europium-chelate labelled anti-phosphotyrosine antibody (Perkin-Elmer)] in an aqueous EDTA solution [100 mM EDTA, 0.2% (w/v) bovine serum albumin in 50 mM HEPES/NaOH, pH 7.5].
The resulting mixture is incubated for 1 h at 22° C. to allow the binding of the biotinylated phosphorylated peptide to the streptavidine-XLent and the PT66-Eu-chelate. Subsequently, the amount of phosphorylated substrate is evaluated by measurement of the resonance energy transfer from the PT66-Eu-chelate to the streptavidine-XLent. Therefore, the fluorescence emissions at 620 nm and 665 nm after excitation at 350 nm are measured in an HTRF reader, e.g. Rubystar (BMG Lab-technologies, Offenburg, Germany) or Viewlux (Perkin-Elmer). The ratio of the emissions at 665 nm and at […] is taken as the measure for the amount of phosphorylated substrate. The data are normalised (enzyme reaction without inhibitor=0% inhibition; all other assay components but no enzyme=100% inhibition).
(TR-FRET usually uses a lanthanide donor and a delayed reading to cut background.)

For data set [2], the target named is Recombinant human c-Met protein (Homo sapiens (Human), UniProt P08581). Nature of the data set: c-Met receptor tyrosine kinase activity assay (NADH read-out). Format: biochemical. To be noted: ATP 30 μM, c-Met 30 nM. As for the experimental part: c-Met Receptor Tyrosine Kinase Activity Assay (NADH Read-Out):
Recombinant human c-Met protein (Invitrogen, Carlsbad, Calif., USA) is used. As substrate for the kinase reaction the peptide KKKSPGEYVNIEFG (JPT, Germany) is used. For the assay, 1 μL of a 51-fold concentrated solution of the test compound in DMSO is pipetted into a white 384-well microtiter plate (Greiner Bio-One, Frickenhausen, Germany). 25 μL of a solution of c-Met (final concentration 30 nM) and pyruvate kinase/lactate dehydrogenase (Roche Diagnostics, Mannheim, Germany; final concentration 8 mg/L) in assay buffer [3-(N-morpholino)propanesulfonic acid (MOPS), 50 mM, pH 7; MgCl2, 10 mM; bovine serum albumin (BSA), 0.01%; Triton X 100, 0.01%; DTT, 2 mM] are added, and the mixture is incubated for 5 min at room temperature. Then, the kinase reaction is started by the addition of 25 μL of a solution of adenosine triphosphate (ATP, final concentration 30 μM), substrate (final concentration 100 μM), nicotinamide adenine dinucleo-tide (NADH, final concentration 50 μM) and dithiothreitol (DTT, final concentration 2 mM) in assay buffer, and the resulting mixture is incubated for a reaction time of 100 min at 32° C.
Subsequently, the amount of phosphorylated substrate is evaluated by measurement of the decrease of NADH fluorescence. Therefore, the fluorescence emissions at 465 nm after excitation at 340 nm is measured in a fluorescence reader, e.g. Tecan Ultra (Tecan, Männedorf, Switzerland). The data are normalised (enzyme reaction without inhibitor=0% inhibition; all other assay components but no enzyme=100% inhibition).

Data set [3] is described as follows: Caco-2 permeability assay. Format: in vitro ADME. The following applies: human, apical to basolateral, 2 h at 37° C., Table 4, read-out: Caco-2 permeability PappA-B. The text has this: Caco-2 Permeability Assay:
The in vitro permeation of a test compound across a Caco-2 cell monolayer is a well-established assay system to predict the permeability from the gastro-intestinal tract [cf. P. Artursson and J. Karlsson: Correlation between oral drug absorption in humans and apparent drug permeability coefficients in human intestinal epithelial (Caco-2) cells, Biochem. Biophys. 175 (3), 880-885 (1991)]. The permeability of the compounds of the present invention in such Caco-2 cells was determined as described below:
Human caco-2 cells (ACC No. 169, DSMZ, German Collection of Microorganisms and Cell Cultures, Braunschweig, Germany) are seeded on 24-well insert plates and are allowed to grow for 14-16 days. For permeability studies, the test compounds are dissolved in DMSO and diluted to the final test concentration of 2 μM with transport buffer [Hanks' Buffered Salt Solution, Gibco/Invitrogen, further supplemented with glucose (final concentration 19.9 mM) and HEPES (final concentration 9.8 mM)]. For determination of the apical to basolateral permeability (PappA-B), the test compound solution is added to the apical side of the cell monolayer and transport buffer to the basolateral side of the monolayer; for determination of the basolateral to apical permeability (PappB-A), the test compound solution is added to the basolateral side of the cell monolayer and transport buffer to the apical side of the monolayer. Samples are taken from the donor compartment at the beginning of the experiment to confirm mass balance. After an incubation of 2 h at 37° C., samples are taken from both compartments. Samples are analyzed by LC-MS/MS, and the apparent permeability coefficients are calculated. Lucifer Yellow permeability is assayed for each cell monolayer to ensure cell monolayer integrity, and the permeability of Atenolol (low permeability marker) and Sulfasalazine (marker for active excretion) is determined for each batch as quality control.

Molecules are shown by their SMILES.

Recombinant human c-Met protein, sequence (P08581 25-1390): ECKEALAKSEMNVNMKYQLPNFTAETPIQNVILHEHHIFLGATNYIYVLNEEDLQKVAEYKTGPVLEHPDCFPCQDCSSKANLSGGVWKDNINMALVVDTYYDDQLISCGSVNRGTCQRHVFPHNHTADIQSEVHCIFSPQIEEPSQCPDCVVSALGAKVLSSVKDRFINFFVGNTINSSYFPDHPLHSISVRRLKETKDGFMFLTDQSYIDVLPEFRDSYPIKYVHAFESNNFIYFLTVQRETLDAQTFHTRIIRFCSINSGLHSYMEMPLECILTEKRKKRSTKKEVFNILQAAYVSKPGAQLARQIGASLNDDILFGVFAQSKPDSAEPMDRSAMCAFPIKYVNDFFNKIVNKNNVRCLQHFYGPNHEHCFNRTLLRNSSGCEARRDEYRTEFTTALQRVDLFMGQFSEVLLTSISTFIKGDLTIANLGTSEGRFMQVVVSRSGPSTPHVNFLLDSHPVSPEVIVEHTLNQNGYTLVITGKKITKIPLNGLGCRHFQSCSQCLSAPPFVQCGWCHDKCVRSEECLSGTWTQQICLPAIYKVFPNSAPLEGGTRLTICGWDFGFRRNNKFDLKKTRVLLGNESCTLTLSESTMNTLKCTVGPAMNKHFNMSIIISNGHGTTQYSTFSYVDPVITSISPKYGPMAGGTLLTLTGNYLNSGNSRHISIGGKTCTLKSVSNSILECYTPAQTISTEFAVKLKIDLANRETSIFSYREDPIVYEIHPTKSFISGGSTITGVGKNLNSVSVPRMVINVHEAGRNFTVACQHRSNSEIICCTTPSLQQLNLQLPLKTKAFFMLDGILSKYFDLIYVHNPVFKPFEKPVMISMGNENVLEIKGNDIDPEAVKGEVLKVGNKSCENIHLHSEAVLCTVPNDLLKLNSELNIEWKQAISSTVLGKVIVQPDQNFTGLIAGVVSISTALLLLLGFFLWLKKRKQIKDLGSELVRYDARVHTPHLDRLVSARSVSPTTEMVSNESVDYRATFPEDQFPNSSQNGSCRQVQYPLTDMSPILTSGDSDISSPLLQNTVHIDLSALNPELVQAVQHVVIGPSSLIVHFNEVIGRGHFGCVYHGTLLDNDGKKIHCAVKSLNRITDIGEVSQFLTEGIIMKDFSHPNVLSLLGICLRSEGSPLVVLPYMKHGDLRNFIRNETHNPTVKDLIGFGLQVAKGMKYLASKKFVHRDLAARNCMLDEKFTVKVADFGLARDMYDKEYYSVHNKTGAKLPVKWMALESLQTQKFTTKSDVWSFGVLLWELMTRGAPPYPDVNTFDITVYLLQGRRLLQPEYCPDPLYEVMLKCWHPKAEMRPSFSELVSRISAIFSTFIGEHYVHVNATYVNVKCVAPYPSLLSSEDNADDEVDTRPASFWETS
recombinant kinase domain of the human c-Met (amino acids 960-1390), sequence (P08581 960-1390): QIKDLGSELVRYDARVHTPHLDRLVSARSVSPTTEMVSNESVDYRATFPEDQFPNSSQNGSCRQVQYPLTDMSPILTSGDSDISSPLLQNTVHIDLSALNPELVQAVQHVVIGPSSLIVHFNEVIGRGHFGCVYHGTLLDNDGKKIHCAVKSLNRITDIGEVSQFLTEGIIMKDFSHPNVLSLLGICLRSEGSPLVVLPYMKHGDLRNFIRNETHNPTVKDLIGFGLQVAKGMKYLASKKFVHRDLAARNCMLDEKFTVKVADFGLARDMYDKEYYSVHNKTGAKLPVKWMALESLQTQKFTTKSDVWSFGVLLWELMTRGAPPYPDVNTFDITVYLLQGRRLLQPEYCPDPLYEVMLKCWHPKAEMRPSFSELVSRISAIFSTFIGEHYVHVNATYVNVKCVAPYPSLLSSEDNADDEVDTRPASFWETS

Regarding `CC1=C(C#N)C(c2ccc3[nH]nc(C)c3c2)C(C#N)=C(C(F)F)N1` (single isomer, unassigned) [Example 2, 2-(Difluoromethyl)-6-methyl-4-(3-methyl-1H-indazol-5-yl)-1,4-dihydropyridine-3,5-dicarbonitrile], the IC50 (as a rule, the concentration needed to halve the response being measured) in data set [1] came out at 2 nM; in data set [2], 6 nM.

As to `CCC(F)(F)C1=C(C#N)C(c2ccc3[nH]nc(C)c3c2)C(C#N)=C(C)N1` (racemic) [Example 30, rac-2-(1,1-Difluoropropyl)-6-methyl-4-(3-methyl-1H-indazol-5-yl)-1,4-dihydropyridine-3,5-dicarbonitrile], the IC50 in data set [1] worked out at 3 nM; in data set [2], 21 nM. The Papp at 2 h, 2 μM in data set [3] was found to be 22 ×10⁻⁶ cm/s.

Turning to `N#CC1=C(C(F)F)NC(C(F)F)=C(C#N)C1c1ccc2[nH]ncc2c1` [Example 24, 2,6-Bis(difluoromethyl)-4-(1H-indazol-5-yl)-1,4-dihydropyridine-3,5-dicarbonitrile], the IC50 in data set [2] came out at 28 nM. For the same compound, in data set [3], the Papp at 2 h, 2 μM was determined as 20.2 ×10⁻⁶ cm/s.
